Measurements taken from patent US20240425523A1, “Compounds for the Degradation of EGFR Kinase” (Beigene Switzerland GMBH, priority 2023, published 2024).

How the values were obtained:
Type in all cases: cell-based
[1] = target: p-EGFR Del19/C797S (H1975-clone #23 cells) (Homo sapiens, UniProt P00533); test: Cell p-EGFR inhibition assay, HTRF, H1975-clone#23 (DEL19/C797S) cells; conditions: 16 h treatment; for Imax (%): maximum percentage of pEGFR inhibition; for IC50: pEGFR inhibition
How it was run: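 Phospho-EGFR read by overnight HTRF on lysates, normalized to DMSO-treated high control; IC50, Hill slope and Imax fitted. Compounds were applied for 16 h (10 uM top, 5-fold steps, 8 doses) to an H1975 single clone carrying only exogenous Del19/C797S EGFR after sgRNA knockout of endogenous copies.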

[2] = target: T1, EGFR L858R (BaF3-L858R cells) (Homo sapiens, UniProt P00533, L858R); test: Cell degradation of EGFR, HTRF assay, BaF3-L858R cells; conditions: 16 h treatment; for DC50: EGFR degradation; for Dmax: maximum percentage of degradation
T1 construct: host or cells: BaF3
How it was run: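 BaF3-L858R cells treated 16 h at 37° C, 5% CO2 with compound (top 10 uM final, 5-fold, 8 doses, 0.1% DMSO). DC50 from four-parameter fit; Dmax is maximum percent degradation.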

[3] = target: T2, p-EGFR L858R (BaF3-L858R cells) (Homo sapiens, UniProt P00533, L858R); test: Cell p-EGFR inhibition assay, HTRF, BaF3-L858R cells; conditions: 16 h treatment; for Imax (%): maximum percentage of pEGFR inhibition; for IC50: pEGFR inhibition
T2 construct: host or cells: BaF3
How it was run: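 BaF3-L858R cells treated 16 h at 37 °C, 5% CO2 with compound from 10 uM top, 5-fold dilutions, 8 doses, in 0.1% DMSO medium. Lysates read overnight by HTRF p-EGFR antibodies; IC50 fitted to four-parameter curve against DMSO high control.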

[4] = target: T3, EGFR-L858R/C797S (H1975-clone #8 cells) (Homo sapiens, UniProt P00533, C797S/L858R); test: Cell degradation of EGFR, HTRF assay, H1975-clone#8 (L858R/C797S) cells; conditions: 16 h treatment; for DC50: EGFR degradation; for Dmax: maximum percentage of degradation
T3 construct: expressed in transfected cells; host or cells: H1975 (endogenous EGFR knocked out, clone #8)

Structure (SMILES) | Imax (%) [1] | IC50 [1] | DC50 [2] | Dmax [2] | Imax (%) [3] | IC50 [3] | DC50 [4] | Dmax [4]
Cc1cc2cc(n1)-c1cnn(C)c1OC[C@H]1CCC(C1)CN1/C(=N/C2=O)Nc2ccc(N3CCN([C@@H]4CCN(c5ccc(OC6CCC(=O)NC6=O)cc5F)C[C@@H]4F)CC3)cc21 (stereo partly drawn) [Example 115, 3-(4-((3S,4R)-4-(4-((7^1R,7^3S,E)-1^1,2^6-dimethyl-3-oxo-5^2,5^3-dihydro-1^1H,5^1H-9-oxa-4-aza-5(2,1)-benzo[d]imidazola-2(2,4)-pyridina-1(4,5)-pyrazola-7(1,3)-cyclopentanacyclononaphane-5^6-yl)piperazin-1-yl)-3-fluoropiperidin-1-yl)-3-fluorophenoxy)piperidine-2,6-dione] | 99.8% | 1.3 nM | 1.6 nM | 81.9% | 97.7% | 3.9 nM | 2.84 nM | 81.1%
Cc1cc2cc(n1)-c1cnn(C)c1OC[C@H]1CCC(C1)CN1/C(=N/C2=O)Nc2ccc(N3CC4(C3)CN(C3CCN(c5cc(F)c([C@H]6CCC(=O)NC6=O)c(F)c5)CC3)C4)cc21 [Example 117, (R)-3-(4-(4-(6-((7^1R,7^3S,E)-1^1,2^6-dimethyl-3-oxo-5^2,5^3-dihydro-1^1H,5^1H-9-oxa-4-aza-5(2,1)-benzo[d]imidazola-2(2,4)-pyridina-1(4,5)-pyrazola-7(1,3)-cyclopentanacyclononaphane-5^6-yl)-2,6-diazaspiro[3.3]heptan-2-yl)piperidin-1-yl)-2,6-difluorophenyl)piperidine-2,6-dione] | 100% | 0.6 nM | 1.11 nM | 78% | 97.1% | 14.9 nM | 0.92 nM | 80.6%
COC[C@@H]1CN(c2ccc3c(c2)N2CC4CC[C@H](COc5c(cnn5C)-c5cc(cc(C)n5)C(=O)/N=C/2N3)C4)CCN1C1CCN(c2ccc(NC3CCC(=O)NC3=O)cc2C)CC1 (stereo partly drawn) [Example 118, 3-((4-(4-((S)-4-((7^1R,7^3S,E)-1^1,2^6-dimethyl-3-oxo-5^2,5^3-dihydro-1^1H,5^1H-9-oxa-4-aza-5(2,1)-benzo[d]imidazola-2(2,4)-pyridina-1(4,5)-pyrazola-7(1,3)-cyclopentanacyclononaphane-5^6-yl)-2-(methoxymethyl)piperazin-1-yl)piperidin-1-yl)-3-methylphenyl)amino)piperidine-2,6-dione] | 100.2% | 1.3 nM | 2.64 nM | 79% | 98.5% | 7.3 nM | 5.97 nM | 73.7%
Cc1cc2cc(n1)-c1cnn(C)c1OC[C@H]1CCC(C1)CN1/C(=N/C2=O)Nc2ccc(N3CCN(C4CCN(c5cc(F)c(C6CCC(=O)NC6=O)c(F)c5)CC4)[C@@H](C)C3)cc21 (stereo partly drawn) [Example 119, (R)-3-(4-(4-((S)-4-((7^1R,7^3S,E)-1^1,2^6-dimethyl-3-oxo-5^2,5^3-dihydro-1^1H,5^1H-9-oxa-4-aza-5(2,1)-benzo[d]imidazola-2(2,4)-pyridina-1(4,5)-pyrazola-7(1,3)-cyclopentanacyclononaphane-5^6-yl)-2-methylpiperazin-1-yl)piperidin-1-yl)-2,6-difluorophenyl)piperidine-2,6-dione] | 100.8% | 0.6 nM | 2.47 nM | 77% | 94.3% | 18.2 nM | 2.3 nM | 74.6%
Cc1cc2cc(n1)-c1cnn(C)c1OC[C@H]1CCC(C1)CN1/C(=N/C2=O)Nc2ccc(N3CCC4(CC3)CN(C3CCN(c5cc(F)c([C@H]6CCC(=O)NC6=O)c(F)c5)CC3)C4)cc21 [Example 120, (R)-3-(4-(4-(7-((7^1R,7^3S,E)-1^1,2^6-dimethyl-3-oxo-5^2,5^3-dihydro-1^1H,5^1H-9-oxa-4-aza-5(2,1)-benzo[d]imidazola-2(2,4)-pyridina-1(4,5)-pyrazola-7(1,3)-cyclopentanacyclononaphane-5^6-yl)-2,7-diazaspiro[3.5]nonan-2-yl)piperidin-1-yl)-2,6-difluorophenyl)piperidine-2,6-dione] | 99.1% | 1.1 nM | 3.14 nM | 70.8% | 94.2% | 15.6 nM | 0.55 nM | 65.7%
COC[C@@H]1CN(c2ccc3c(c2)N2C[C@@H]4CCC(COc5c(c(C)nn5C)-c5cc(cc(C)n5)C(=O)/N=C/2N3)C4)CCN1C1CN(C2CCN(c3cc(F)c([C@H]4CCC(=O)NC4=O)c(F)c3)CC2)C1 [Example 121, (R)-3-(2,6-difluoro-4-(4-(3-((S)-2-(methoxymethyl)-4-((7R,7^3S,E)-1^1,1^3 2^6-trimethyl-3-oxo-5^2,5^3-dihydro-1^1H,5^1H-9-oxa-4-aza-5(2,1)-benzo[d]imidazola-2(2,4)-pyridina-1(4,5)-pyrazola-7(1,3)-cyclopentanacyclononaphane-5^6-yl)piperazin-1-yl)azetidin-1-yl)piperidin-1-yl)phenyl)piperidine-2,6-dione] | 100.8% | 0.7 nM | 1.06 nM | 82.2% | 96.6% | 6 nM | 0.98 nM | 88.3%
Cc1cc2cc(n1)-c1cnn(CCO)c1OC[C@H]1CCC(C1)CN1/C(=N/C2=O)Nc2ccc(N3CCN(C4CCN(c5cc(F)c([C@H]6CCC(=O)NC6=O)c(F)c5)CC4)CC3)cc21 [Example 122, (R)-3-(2,6-difluoro-4-(4-(4-((7^1R,7^3S,E)-1^1-(2-hydroxyethyl)-2^6-methyl-3-oxo-5^2,5^3-dihydro-1^1H,5^1H-9-oxa-4-aza-5(2,1)-benzo[d]imidazola-2(2,4)-pyridina-1(4,5)-pyrazola-7(1,3)-cyclopentanacyclononaphane-5^6-yl)piperazin-1-yl)piperidin-1-yl)phenyl)piperidine-2,6-dione] | 98.9% | 0.5 nM | 4.53 nM | 70.7% | 96.8% | 11 nM | 3.24 nM | 52.2%
Cc1cc2cc(n1)-c1cnn(C)c1OC[C@H]1CCC(C1)CN1/C(=N/C2=O)Nc2ccc(N3CCN(C4CCN(c5ccc(NC6CCC(=O)NC6=O)cc5C)CC4)CC3)cc21 (some centres unmarked) [Example 123, 3-((4-(4-(4-((7^1R,7^3S,E)-1^1,2^6-dimethyl-3-oxo-5^2,5^3-dihydro-1^1H,5^1H-9-oxa-4-aza-5(2,1)-benzo[d]imidazola-2(2,4)-pyridina-1(4,5)-pyrazola-7(1,3)-cyclopentanacyclononaphane-5^6-yl)piperazin-1-yl)piperidin-1-yl)-3-methylphenyl)amino)piperidine-2,6-dione] | 100.4% | 0.7 nM | 3.37 nM | 77.1% | 95.3% | 16.3 nM | 2.14 nM | 81.6%
Cc1cc2cc(n1)-c1cnn(C)c1OC[C@H]1CCC(C1)CN1/C(=N/C2=O)Nc2ccc(N3CC(N(C)C4CCN(c5cc(F)c([C@H]6CCC(=O)NC6=O)c(F)c5)CC4)C3)cc21 [Example 124, (R)-3-(4-(4-((1-((7^1R,7^3S,E)-1^1,2^6-dimethyl-3-oxo-5^2,5^3-dihydro-1^1H,5^1H-9-oxa-4-aza-5(2,1)-benzo[d]imidazola-2(2,4)-pyridina-1(4,5)-pyrazola-7(1,3)-cyclopentanacyclononaphane-5^6-yl)azetidin-3-yl)(methyl)amino)piperidin-1-yl)-2,6-difluorophenyl)piperidine-2,6-dione] | 99.6% | 0.9 nM | 3.58 nM | 71.1% | 94.6% | 17.1 nM | 2.3 nM | 67.5%
Cc1cc2cc(n1)-c1cnn(C)c1OC[C@H]1CCC(C1)CN1/C(=N/C2=O)Nc2ccc(N3CC4(CCN(C5CCN(c6cc(F)c([C@H]7CCC(=O)NC7=O)c(F)c6)CC5)CC4)C3)cc21 [Example 125, (R)-3-(4-(4-(2-((7^1R,7^3S,E)-1^1,2^6-dimethyl-3-oxo-5^2,5^3-dihydro-1^1H,5^1H-9-oxa-4-aza-5(2,1)-benzo[d]imidazola-2(2,4)-pyridina-1(4,5)-pyrazola-7(1,3)-cyclopentanacyclononaphane-5^6-yl)-2,7-diazaspiro[3.5]nonan-7-yl)piperidin-1-yl)-2,6-difluorophenyl)piperidine-2,6-dione] | 101.9% | 2.2 nM | 1.37 nM | 77.1% | 98.6% | 20.7 nM | 2.61 nM | 67.4%
